From patent publication US6514971B1, “Cinnoline derivatives and use as medicine” (Zeneca Limited, priority 1996, dated 2003) come the findings set out here.

Structures can show the parent of a compound that is named as a salt.

By melting point is commonly meant the temperature, or range, at which the solid turns liquid. Compound `COc1cc2c(Nc3cc(O)c(Cl)cc3F)cnnc2cc1OCc1ccccc1` (as salt: hydrochloride) [Example 6, 7-benzyloxy-4-(4-chloro-2-fluoro-5-hydroxyanilino)-6-methoxycinnoline] registered a melting point of 280 to 284 °C.

The compound `COCCOc1cc2nncc(Oc3cc(O)c(C)cc3F)c2cc1OC` [Example 20, 4-(2-fluoro-5-hydroxy-4-methylphenoxy)-6-methoxy-7-(2-methoxyethoxy)cinnoline] registered a melting point of 267 to 273 °C.

Regarding `COc1cc2c(Nc3cc(O)c(Cl)cc3F)cnnc2cc1OCCCN1CCCC1` (as salt: hydrochloride) [Example 13, 4-(4-chloro-2-fluoro-5-hydroxyanilino)-6-methoxy-7-(3-pyrrolidinopropoxy)cinnoline], the melting point was 240 to 245 °C.

Consider `COCCOCCOc1cc2nncc(Nc3cc(O)c(C)cc3F)c2cc1OC` (as salt: hydrochloride) [Example 23, 4-(2-fluoro-5-hydroxy-4-methylanilino)-6-methoxy-7-[2-(2-methoxyethoxy)ethoxy]cinnoline], for which the melting point is 250 to 256 °C.

`COCCOc1cc2nncc(Nc3ccc(Br)cc3F)c2cc1OC` (as salt: hydrochloride) [Example 5, 4-(4-bromo-2-fluoroanilino)-6-methoxy-7-(2-methoxyethoxy)cinnoline]: the melting point lay within 278 to 281 °C.

As for `COc1cc2c(Nc3cc(O)c(Cl)cc3F)cnnc2cc1OCCCN1CCOCC1` (as salt: hydrochloride) [Example 12, 4-(4-chloro-2-fluoro-5-hydroxyanilino)-6-methoxy-7-(3-morpholinopropoxy)cinnoline], the melting point was 218 to 225 °C.

`COc1cc2nncc(Nc3cc(O)c(Cl)cc3F)c2cc1OC` (as salt: hydrochloride) [Example 22, 4-(4-chloro-2-fluoro-5-hydroxyanilino)-6,7-dimethoxycinnoline] came in with a melting point of 255 to 256 °C.

Regarding `COc1ccc2c(Nc3ccc(C)c(O)c3)cnnc2c1` (as salt: hydrochloride) [Example 14, 4-(3-hydroxy-4-methylanilino)-7-methoxycinnoline], the melting point was 270 to 275 °C.

Regarding `COc1cc2c(Nc3cc(OC(C)=O)c(Cl)cc3F)cnnc2cc1OCc1ccccc1` (as salt: hydrochloride) [Example 7, 4-(5-acetoxy-4-chloro-2-fluoroanilino)-7-benzyloxy-6-methoxycinnoline], the melting point was 240 to 247 °C.

`COc1cc2c(Nc3cc(O)c(C)cc3F)cnnc2cc1OCc1ccncc1.Cl`: the melting point lay within 244 to 252 °C.

The compound `COCCOc1cc2nncc(Nc3cc(O)c(C)cc3F)c2cc1OC` (as salt: hydrochloride) [Example 11, 4-(2-fluoro-5-hydroxy-4-methylanilino)-6-methoxy-7-(2-methoxyethoxy)cinnoline] yielded a melting point of 283 to 290 °C.

With `COc1cc2nncc(Nc3cc(O)c(C)cc3F)c2cc1OC` (as salt: hydrochloride) [Example 21, 4-(2-fluoro-5-hydroxy-4-methylanilino)-6,7-dimethoxycinnoline], the melting point is 251 to 253 °C.

`COc1cc2nncc(Nc3ccc(C)c(O)c3)c2cc1OC` [Example 1, 4-(3-hydroxy-4-methylanilino)-6,7-dimethoxycinnoline] gave a melting point of 240 to 244 °C.

For `COc1cc2c(Nc3cc(O)c(C)cc3F)cnnc2cc1OCc1nccn1C.Cl`, the melting point lay in the range of 215 to 221 °C.

For `COc1cc2c(Nc3cc(O)c(Cl)cc3F)cnnc2cc1OCc1ccncc1` (as salt: hydrochloride) [Example 10, 4-(4-chloro-2-fluoro-5-hydroxyanilino)-6-methoxy-7-(4-pyridylmethoxy)cinnoline], the melting point was 243 to 251 °C.
